Data published in patent US5399340A, “Use of amide complex compounds” (Schering Aktiengesellschaft, priority 1989, dated 1995).

What was measured:
T1 relaxation in water = format: physicochemical
T1 relaxation in plasma = format: physicochemical
[1] = cited from earlier work

## C[NH2+]C[C@H](O)[C@@H](O)[C@H](O)[C@H](O)CO.O=C([O-])CN(CCN(CC(=O)[O-])CC(=O)[O-])CCN(CC(=O)[O-])CC(=O)Nc1ccccc1.[Gd+3] [Example 2, N-Methylglucamine Salt of the Gadolinium Complex of 3,6,9-Tris(carboxymethyl)-3,6,9-triazaundecanedioic Acid Phenyl Monoamide]
T1 relaxation in water
  T1 relaxation: 3.79 ± 0.16 mmol⁻¹ s⁻¹
T1 relaxation in plasma
  T1 relaxation: 5.45 ± 0.68 mmol⁻¹ s⁻¹

## CNC[C@H](O)[C@@H](O)[C@H](O)[C@H](O)CO.CNC[C@H](O)[C@@H](O)[C@H](O)[C@H](O)CO.O=C([O-])CN(CCN(CC(=O)[O-])CC(=O)O)CCN(CC(=O)[O-])CC(=O)O.[Gd+3] [MAGNEVIST]
[1]; intravenous injection
  distribution: extra-cellular
  passage of intact cell membranes and extrarenal excretion: practically not at all observed
  route of excretion: excreted via the kidneys by glomerular secretion
[1]; patients with limited kidney function
  rate of excretion in renal insufficiency: excreted only very slowly
